Read-outs that look alike come from different tables or passages of the source.
How the values were obtained:
Meloidogyne incognita = experiment: Meloidogyne test (gall formation on lettuce roots); format: in vivo; conditions: for pest or weed control at 20 ppm: Meloidogyne incognita, 336 h, after 14 d, nematicidal action by gall formation on lettuce, read-out: Kill rate in % after 14 d; for kill rate: 20 ppm, Meloidogyne test as described
Procedure: (§1) • Solvent: 7 parts by weight of dimethylformamide • Emulsifier: 2 parts by weight of alkylaryl polyglycol ether
To produce a suitable preparation of active compound, 1 part by weight of active compound is mixed with the stated amounts of solvent and emulsifier, and the concentrate is diluted with water to the desired concentration.
Vessels are filled with sand, solution of active compound, Meloidogyne incognita egg/larvae suspension and lettuce seeds. The lettuce seeds germinate and the plants develop. On the roots, galls are formed.
After the desired period of time, the nematicidal action is determined in % using the formation of galls. 100% means that no galls were found; 0% means that the number of galls on the treated plants corresponds to that of the untreated control.

[1] = logP determination by reversed-phase HPLC (EEC Directive 79/831 Annex V.A8); format: physicochemical; conditions: for logP a): acidic range: 0.1% aqueous phosphoric acid/acetonitrile gradient, C18, 43° C.
Description: (a) Mobile phases for the determination of the acidic range: 0.1% aqueous phosphoric acid, acetonitrile; linear gradient from 10% acetonitrile to 90% acteonitrile—the corresponding measurement results in Table 1 are marked^a). […]

[2] = test system: larvae of the mustard beetle (Phaedon cochleariae); experiment: Phaedon larvae test (cabbage leaves, dip); format: in vivo; conditions: 168 h, after 7 d, cabbage leaves dipped, read-out: Kill rate in % after 7 d
Procedure: as §1
After the desired period of time, the kill in % is determined. 100% means that all beetle larvae have been killed; 0% means that none of the beetle larvae have been killed.

[3] = test system: greenhouse red spider mite (Tetranychus urticae); experiment: Tetranychus test (OP-resistant/dip treatment); format: in vivo; conditions: 168 h, read-out: Kill rate in % after 7 d
Procedure: Tetranychus Test (OP-Resistant/Dip Treatment)
as §1
After the desired period of time, the effect in % is determined. 100% means that all spider mites have been killed; 0% means that none of the spider mites have been killed.

[4] = test system: caterpillars of the armyworm (Spodoptera frugiperda); experiment: Spodoptera frugiperda test (cabbage leaves, dip); format: in vivo; conditions: 168 h, after 7 d, cabbage leaves dipped, read-out: Kill rate in % after 7 d
Procedure: Spodoptera frugiperda Test
as §1
After the desired period of time, the kill in % is determined. 100% means that all caterpillars have been killed; 0% means that none of the caterpillars have been killed.

[5] = reversed-phase HPLC column (C18); acidic range: 0.1% aqueous phosphoric acid/acetonitrile gradient, C18, 43° C.; read-out: logP a)
[6] = 100 ppm, after 7 d, OP-resistant, bean plants dipped

SMILES: FC(F)=CCCSc1nccc(-c2ccc(Cl)s2)n1 [Example 3]
- pest or weed control at 20 ppm (Meloidogyne incognita): 100%
- chromatographic logP [1, 5]: 4.73
- pest or weed control at 500 ppm [2]: 100%

SMILES: [O-][S+](CCC=C(F)F)c1nccc(-c2ccccn2)n1 (centres unmarked) [Example 5]
- chromatographic logP [1, 5]: 1.47
- pest or weed control at 100 ppm [3]: 100%

SMILES: FC(F)=CCCSc1nccc(-c2cccnc2)n1 [Example 9]
- pest or weed control at 20 ppm (Meloidogyne incognita): 100%
- chromatographic logP [1, 5]: 1.96
- pest or weed control at 100 ppm [3, 6]: 100%

SMILES: FC(F)=CCCSc1nccc(-c2ccncc2)n1 [Example 10]
- chromatographic logP [1, 5]: 1.72
- pest or weed control at 500 ppm [2]: 100%

SMILES: FC(F)=C(F)CCSc1nccc(-c2nccs2)n1 [Example 12]
- pest or weed control at 20 ppm (Meloidogyne incognita): 100%
- chromatographic logP [1, 5]: 1.56

SMILES: FC(F)=C(F)CCSc1nccc(-c2cnccn2)n1 [Example 16]
- pest or weed control at 20 ppm (Meloidogyne incognita): 100%
- chromatographic logP [1, 5]: 2.92

SMILES: FC(F)=CCCSc1nccc(-c2cccc(Br)n2)n1 [Example 17]
- chromatographic logP [1, 5]: 4.51
- pest or weed control at 100 ppm [3, 6]: 100%

SMILES: CCOc1cccc(-c2ccnc(SCCC=C(F)F)n2)n1 [Example 20]
- pest or weed control at 500 ppm [4]: 100%
- chromatographic logP [1, 5]: 4.91

SMILES: FC(F)=C(F)CCSc1nccc(-c2ccc[nH]2)n1 [Example 21]
- pest or weed control at 20 ppm (Meloidogyne incognita): 100%

SMILES: FC(F)=C(F)CCSc1nccc(-n2cccn2)n1 [Example 22]
- pest or weed control at 20 ppm (Meloidogyne incognita): 100%
- chromatographic logP [1, 5]: 3.27

SMILES: FC(F)=CCCSc1nccc(-n2cc(Cl)cn2)n1 [Example 24]
- chromatographic logP [1, 5]: 4.13
- pest or weed control at 500 ppm [2]: 100%

SMILES: FC(F)=CCCSc1nccc(-c2cccs2)n1 [Example 27]
- chromatographic logP [1, 5]: 3.83
- pest or weed control at 100 ppm [3, 6]: 100%

SMILES: FC(F)=C(F)CCSc1nccc(-c2cccs2)n1 [Example 28]
- pest or weed control at 20 ppm (Meloidogyne incognita): 100%
- chromatographic logP [1, 5]: 3.84

SMILES: FC(F)=CCCSc1nccc(-c2ccc3ccccc3n2)n1 [Example 31]
- pest or weed control at 500 ppm [4]: 100%
- chromatographic logP [1, 5]: 4.81

SMILES: FC(F)=CCCSc1nccc(-c2cc(-c3ccccc3)ccn2)n1 [Example 32]
- chromatographic logP [1, 5]: 4.77
- pest or weed control at 100 ppm [3, 6]: 100%

SMILES: CC(C)(C)c1ccnc(-c2ccnc(SCCC=C(F)F)n2)c1 [Example 33]
- chromatographic logP [1, 5]: 4.8
- pest or weed control at 100 ppm [3, 6]: 100%

SMILES: FC(F)=C(F)CCSc1nccc(-c2ccc3ccccc3n2)n1 [Example 34]
- pest or weed control at 20 ppm (Meloidogyne incognita): 100%
- chromatographic logP [1, 5]: 4.81

SMILES: Cc1cc(=O)[nH]n1-c1ccnc(SCCC=C(F)F)n1 [Example 39]
- pest or weed control at 20 ppm (Meloidogyne incognita): 100%
- chromatographic logP [1, 5]: 2.55

SMILES: FC(F)=CCCSc1nccc(-n2nnc3ccccc32)n1 [Example 40]
- pest or weed control at 500 ppm [4]: 100%
- chromatographic logP [1, 5]: 3.97

SMILES: FC(F)=C(F)CCSc1nccc(-n2cccc2)n1 [Example 41]
- pest or weed control at 20 ppm (Meloidogyne incognita): 100%

SMILES: FC(F)=CCCSc1nccc(-n2nc3ccccc3n2)n1 [Example 42]
- chromatographic logP [1, 5]: 3.98
- pest or weed control at 100 ppm [3, 6]: 99%

SMILES: FC(F)=CCCSc1nccc(-c2ncccc2Cl)n1 [Example 43]
- chromatographic logP [1, 5]: 3.32
- pest or weed control at 100 ppm [3, 6]: 99%

SMILES: FC(F)=CCCSc1nccc(-c2nc3ccc(Cl)cc3s2)n1 [Example 45]
- pest or weed control at 20 ppm (Meloidogyne incognita): 100%
- chromatographic logP [1, 5]: 5.57

SMILES: FC(F)=CCCSc1nccc(-c2cscn2)n1 [Example 48]
- pest or weed control at 500 ppm [4]: 100%
- chromatographic logP [1, 5]: 3.14

SMILES: COc1ccc(-c2ccnc(SCCC(F)=C(F)F)n2)nc1 [Example 49]
- pest or weed control at 20 ppm (Meloidogyne incognita): 100%
- chromatographic logP [1, 5]: 2.17

SMILES: COc1ccc(-c2ccnc(SCCC=C(F)F)n2)nc1 [Example 50]
- pest or weed control at 500 ppm [4]: 100%
- chromatographic logP [1, 5]: 2.12

SMILES: FC(F)=CCCSc1nccc(-c2ccc(Br)s2)n1 [Example 51]
- pest or weed control at 500 ppm [4]: 100%
- chromatographic logP [1, 5]: 4.77

SMILES: Cc1ccc(-c2ccnc(SCCC=C(F)F)n2)s1 [Example 52]
- pest or weed control at 500 ppm [4]: 100%
- chromatographic logP [1, 5]: 4.3

SMILES: FC(F)=CCCSc1nccc(-c2cc3ccccc3s2)n1 [Example 53]
- pest or weed control at 500 ppm [4]: 100%
- chromatographic logP [1, 5]: 4.87

SMILES: FC(F)=C(F)CCSc1nccc(-c2cc3ccccc3s2)n1 [Example 57]
- pest or weed control at 20 ppm (Meloidogyne incognita): 100%
- chromatographic logP [1, 5]: 4.85

SMILES: FC(F)=CCCSc1nccc(-c2ccsc2)n1 [Example 59]
- chromatographic logP [1, 5]: 3.8
- pest or weed control at 500 ppm [2]: 100%

SMILES: FC(F)=C(F)CCSc1nccc(-c2ccsc2)n1 [Example 60]
- pest or weed control at 20 ppm (Meloidogyne incognita): 100%
- chromatographic logP [1, 5]: 3.82

SMILES: Cc1cc(-c2ccnc(SCCC(F)=C(F)F)n2)c(C)s1 [Example 62]
- pest or weed control at 20 ppm (Meloidogyne incognita): 100%
- chromatographic logP [1, 5]: 4.79

SMILES: FC(F)=CCCSc1nccc(-c2cc(Cl)sc2Cl)n1 [Example 63]
- pest or weed control at 500 ppm [4]: 100%
- chromatographic logP [1, 5]: 5.65
- pest or weed control at 100 ppm [3]: 100%

SMILES: FC(F)=C(F)CCSc1nccc(-c2cc(Cl)sc2Cl)n1 [Example 64]
- pest or weed control at 20 ppm (Meloidogyne incognita): 100%
- chromatographic logP [1, 5]: 5.55

SMILES: CC(C)(C)n1nnc(-c2cnc(SCCC(F)=C(F)F)nc2)n1 [Example 67]
- pest or weed control at 20 ppm (Meloidogyne incognita): 100%
- chromatographic logP [1, 5]: 4.22
- pest or weed control at 500 ppm [2]: 100%

SMILES: Cc1nn(-c2ccnc(SCCC=C(F)F)n2)cc1Br [Example 82]
- kill rate (Meloidogyne incognita): 100%
- logP a) [1]: logP '2 4.76^a)

SMILES: CC(C)Oc1cnn(-c2ccnc(SCCC=C(F)F)n2)c1 [Example 85]
- kill rate (Meloidogyne incognita): 100%
- logP a) [1]: logP = 4.26^a)

SMILES: Cc1cc(C)n(-c2ccnc(SCCC=C(F)F)n2)n1 [Example 86]
- kill rate (Meloidogyne incognita): 100%
- logP a) [1]: logP = 3.95^a)

SMILES: FC(F)=CCCSc1nccc(-n2ncc3ccccc32)n1 [Example 87]
- kill rate (Meloidogyne incognita): 100%
- logP a) [1]: logP = 4.26^a)

SMILES: FC(F)=CCCSc1nccc(-n2cnc(Cl)c2Cl)n1 [Example 88]
- kill rate (Meloidogyne incognita): 100%
- logP a) [1]: logP = 3.57^a)

SMILES: FC(F)=CCCSc1nccc(-n2cnc(-c3ccccc3)c2)n1 [Example 92]
- kill rate (Meloidogyne incognita): 100%
- logP a) [1]: logP = 3.45^a)

SMILES: Nc1nn(-c2ccnc(SCCC=C(F)F)n2)cc1Br [Example 93]
- kill rate (Meloidogyne incognita): 100%
- logP a) [1]: logP = 3.15^a)

SMILES: Nc1ccn(-c2ccnc(SCCC=C(F)F)n2)n1 [Example 97]
- kill rate (Meloidogyne incognita): 100%
- logP a) [1]: logP = 2.31^a)

SMILES: N#Cc1cccn1-c1ccnc(SCCC=C(F)F)n1 [Example 104]
- kill rate (Meloidogyne incognita): 100%
- logP a) [1]: logP = 3.23^a)

SMILES: Cc1nccn1-c1ccnc(SCCC=C(F)F)n1 [Example 107]
- kill rate (Meloidogyne incognita): 100%
- logP a) [1]: logP = 1.30^a)

SMILES: FC(F)=CCCSc1nccc(-n2cnc(Cl)n2)n1 [Example 109]
- kill rate (Meloidogyne incognita): 100%
- logP a) [1]: logP = 3.31^a)

SMILES: O=[N+]([O-])c1ncn(-c2ccnc(SCCC=C(F)F)n2)n1 [Example 110]
- kill rate (Meloidogyne incognita): 100%
- logP a) [1]: logP = 2.95^a)

SMILES: FC(F)=CCCSc1nccc(-n2cncn2)n1 [Example 112]
- kill rate (Meloidogyne incognita): 100%
- logP a) [1]: logP = 2.44^a)

SMILES: O=C1CCC(=O)N1c1ccnc(SCCC=C(F)F)n1 [Example 119]
- kill rate (Meloidogyne incognita): 100%

SMILES: FC(F)=CCCSc1nccc(-n2cccc2)n1 [Example 120]
- kill rate (Meloidogyne incognita): 100%

SMILES: FC(F)=CCCSc1nccc(-n2nccn2)n1 [Example 125]
- kill rate (Meloidogyne incognita): 100%

SMILES: FC(F)=CCCSc1nccc(Cl)n1 [Example (II-1), 4-chloro-2-[(4,4-difluoro-3-butenyl)-sulfanyl]-pyrimidine]
- chromatographic logP ([1]; reversed-phase HPLC column (C18), pH 2.3, read-out: logP (pH 2.3)): 3.3

— patent US20060106042A1, “Substituted heterocyclpyrmidines” (priority 2002, published 2006)
